Source: patent US20070087352A9, “Inhibitors for androgen antagonist refractory prostate cancer” (priority 2003, published 2007)

Columns and labels:
[1] = molecular target: T1, hERα-LBD (Homo sapiens, UniProt P03372); test: Electrophoretic mobility shift assay (native PAGE); format: binding; conditions: 2-fold or 10-fold molar excess of peptide, 6% native PAGE
T1 sequence (P03372 311-547 limits assumed): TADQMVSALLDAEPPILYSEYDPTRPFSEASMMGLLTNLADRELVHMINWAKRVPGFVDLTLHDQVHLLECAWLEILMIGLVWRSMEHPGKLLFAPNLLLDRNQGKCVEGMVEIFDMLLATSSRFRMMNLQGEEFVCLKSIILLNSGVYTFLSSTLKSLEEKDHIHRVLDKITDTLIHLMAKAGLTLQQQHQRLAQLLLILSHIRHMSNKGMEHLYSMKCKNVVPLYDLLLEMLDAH
Protocol: Eight microgram samples of purified hERα-LBD bound to either DES or OHT were incubated in the absence of the GRIP1 NR Box 2 peptide (SEQ ID NO:4), i.e., buffer alone, or in the presence of either a 2-fold or 10-fold molar excess of the GRIP1 NR Box 2 peptide. The binding reactions were performed on ice for 45 minutes in 10 μl of buffer containing 20 mM Tris, pH 8.1, 1 mM DTT, and 200 mM NaCl and then subjected to 6% native PAGE. Gels were stained with GELCODE Blue Stain reagent (Pierce).
In the presence of the NR box 2 peptide, the migration of the DES-LBD complex was retarded. In contrast, peptide addition had no effect on the mobility of the OHT-LBD complex.

[2] = molecular target: T2, agonist-bound ERα LBD (Homo sapiens, UniProt P03372); test: Competition assays of GRIP1 NR Box 2 peptide; conditions: binding to agonist-bound ERα LBD
T2 sequence (P03372 311-547 limits assumed): T1 sequence (P03372 311-547 limits assumed)

- migration of the DES-LBD complex ([1]; hERα-LBD bound to agonist DES): retarded
- mobility of the OHT-LBD complex ([1]; hERα-LBD bound to antagonist OHT): no effect
- IC50 [2]: < 400 nM
Substance: H-KHKILHRLLQDSS-OH [GRIP1 NR Box 2 peptide]
